For data set [1], the system named is MC38 cells. Description: Viability of p-gp 1 expressing MC38 cells with BET inhibitor + TNF +/- Zosuquidar, 72 h. Type of data set: cell-based, murine. The settings on record: for change in sensitivity by p-gp 1 block with Zosuquidar: 0.5mM (so in the source) Zosuquidar, TNF 15ng/mL, 72 hours, some concentrations tested.
In data set [2] the test system is AU565 cells. Description: Synergy of RG6146 and recombinant TNF (PI positivity, ZIP model). The data set is classed as cell-based, human. The settings on record: RG6146 + recombinant TNF, 18 hours.
Data set [3] deals with MC38 cells. In words: Cell death of MC38 cells overexpressing Bcl-2 or cFLIP (PI positivity), 18 h. Type of data set: cell-based, murine. The conditions noted are these: cFLIP overexpression, RG6146 (so in the source) and TNF. Set-up: dose or concentration left out as unconfirmed.
Data set [4] deals with HCT116 cells. Description: Growth with Caspase 8 knock down, Incucyte S3. The data set is classed as cell-based. The conditions noted are these: 2.5mM (so in the source) RG6146 + 15ng/ml TNF, 7 days.
For data set [5], the system named is Caspase 3,7. Description: Caspase 3,7 Glo activity, 8 h. The data set is classed as cell-based. The conditions noted are these: for Caspase 3,7 activity: RG6146 + 15ng/mL TNF vs RG6146 single agent, 8h.
The subject of data set [6] is MLL-AF9-driven acute myeloid leukemia cells. In words: OT1 T cell cytotoxicity towards MLL-AF9 AML cells (PI positivity), 16 h. The data set is classed as cell-based, murine. The settings on record: 2.5uM RG6146, 16 hours.
Data set [7] concerns HCT116 cells. In words: CellTiterGlo viability with BET inhibitor + TNF, 72 h. The data set is classed as cell-based. The settings on record: in combination with 15ng/ml TNF vs BET inhibitor single agent, significance for the highest concentration of compound.
Data set [8] deals with MC38 cells. In words: Synergy of RG6146 and recombinant TNF (PI positivity, ZIP model). The data set is classed as cell-based, murine. The conditions noted are these: RG6146 + recombinant TNF, 18 hours.
The subject of data set [9] is Caspase 8. In words: Caspase 8 Glo activity, 8 h. The data set is classed as cell-based. The settings on record: for Caspase 8 activity: RG6146 + 15ng/mL TNF vs RG6146 single agent, 8h.
Data set [10] has as its system MKN45 cells. In words: CellTiterGlo viability with BET inhibitor + TNF, 72 h. Type of data set: cell-based. The conditions noted are these: in combination with 15ng/ml TNF vs BET inhibitor single agent, significance for the highest concentration of compound. For orientation: Cellular ATP, detected with luciferase, serves as a proxy for viable cell number.
Data set [11] deals with HCT116-NLV cells. In words: Epigenetic small molecule screen, coculture with CMV-specific T cells, 48 h. The data set is classed as cell-based, human. The settings on record: Ag+ coculture, 2.5uM or 5uM.
Data set [12] relates to HCT116 cells. Description: Cleaved PARP Western blot with CEA-TCB 2 conditioned media + RG6146. The data set is classed as cell-based. The settings on record: RG6146 (2.5 and 7 mM as printed) + CEA-TCB 2 conditioned media; not seen in absence of CEA-TCB 2. For orientation: Immunoblotting shows a protein as a band on a membrane.
Data set [13] relates to MKN45 cells. Description: Viability with CEA-TCB/PBMC conditioned media + RG6146, 72 h. Type of data set: cell-based.
The subject of data set [14] is HCT116 cells. In words: CEA-TCB bystander killing of CEA negative cells, flow cytometry, 72 h. Type of data set: cell-based. The conditions noted are these: RG6146 15uM to 0.002uM with CEA-TCB activated T cells. Background: A flow cytometer gives signals particle by particle.
The test system of data set [15] is MKN45 cells. In words: Cleaved PARP Western blot with CEA-TCB conditioned media + RG6146. Type of data set: cell-based. The conditions noted are these: RG6146 (1 and 2.5 mM as printed) + CEA-TCB conditioned media, 24h; not seen in absence of CEA-TCB.
For data set [16], the system named is MKN45 cells. Description: Cleaved PARP Western blot with CEA-TCB 2 conditioned media + RG6146. The conditions noted are these: RG6146 (2.5 and 7 mM as printed) + CEA-TCB 2 conditioned media; not seen in absence of CEA-TCB 2. Type of data set: cell-based.
Data set [17] has as its system HCT116 cells. Description: CEA-TCB 2 bystander killing of CEA negative cells, flow cytometry, 72 h. The settings on record: RG6146 15uM to 0.002uM with CEA-TCB 2 activated CTLs. The data set is classed as cell-based.
Data set [18] concerns HCT116-GFP cells. Description: CEA-TCB bystander effect on CEA negative cell growth, Incucyte S3. The data set is classed as cell-based. The conditions noted are these: RG6146 combined with CEA-TCB (20nM) vs RG6146 single agent, one week.
Data set [19] has as its system MC38-Ova cells. In words: OT1 T cell co-culture cytotoxicity (PI positivity), 18 h. Type of data set: cell-based, murine. Set-up: dose or concentration left out as unconfirmed. The conditions noted are these: RG6146 with OT1 T cells.
Data set [20] relates to HCT116-EBV cells. Description: Epigenetic small molecule screen, negative control coculture with CMV-specific T cells, 48 h. The settings on record: Ag- (EBV peptide) coculture, 2.5uM or 5uM.
Data set [21] relates to MC38-huCEA expressing sc tumors. Description: In vivo antitumor efficacy against MC38-huCEA sc tumors. The settings on record: single agent; JQ1 50mg/kg ip once daily (14x) or CEA-TCB 2.5mg/kg iv twice weekly (4x); last day of study. Set-up: species or system mice.
Data set [22] deals with HCT116 cells. In words: Viability with CEA-TCB/PBMC conditioned media + RG6146, 72 h. The conditions noted are these: 20nM CEA-TCB conditioned media + RG6146 30uM to 0.0005uM. Type of data set: cell-based.
Data set [23] deals with HCT116 cells. The settings on record: CEA-TCB; "as has been shown for HCT116 cells that express no CEA"; cited from earlier work.
Data set [24] deals with CEA on tumor cells and CD3e on T cells. The settings on record: mouse models; cited from earlier work.
Setting [25] is: HCT116 and MKN45 cells, inhibitor with RG6146 + TNF (significance not shown).

Results on eleven molecules are retold here after WO2020169698A1, “Sensitization of cancer cells to tnf by bet inhibition” (dated 2020).

`Cc1sc2c(c1C)C(c1ccc(Cl)cc1)=N[C@@H](CC(=O)NCCCN1CCN(C)CC1)c1nnc(C)n1-2` [RG6146, 2-[(S)-4-(4-chloro-phenyl)-2,3,9-trimethyl-6H-l-thia-5,7,8,9a-tetraaza-cyclopenta[e]azulen-6-yl]-N-[3-(4-methyl-piperazin-l-yl)-propyl]-acetamide]: the “change in sensitivity by p-gp 1 block with Zosuquidar” value in data set [1] is “sensitized”. Moreover, the “sensitivity of p-gp 1 expressing MC38 cells” value in [1] (compared to JQ1) is “less sensitive”. Also, the “induction of cell death, synergy with TNF” value in data set [2] and in [8] was “synergstic” throughout. Besides, in [3], the “cytotoxic effects of TNF+RG6146” value is recorded as “abrogate the cytotoxic effects”. Besides, the cell growth rescue result in data set [4] (Caspase 8 knockdown) is “rescued cell growth under these treatment conditions partially”. Also, the cell growth entry in data set [4] (scr treated cells) is “completely blocked HCT116 cell growth”. In addition, the “Caspase 3,7 activity” value is “induces Caspase3,7 and 8 activity in HCT-116 and MKN45 cells significantly” in data set [5] (HCT116 cells); “induces Caspase3,7 and 8 activity in HCT-116 and MKN45 cells significantly” in data set [5] (MKN45 cells). The “cytotoxic activity of OT1 T cells” value in [6] (perforin expressing (wild-type) OT1 T cells) and in data set [6] (perforin-deficient OT1 T cells) was “augments the cytotoxic activity” in each case. Moreover, the viability entry is listed as “significantly decrease viability” in data set [7], “significantly decrease viability” in data set [10], “significantly decrease viability” in data set [11] and “decrease in viability” in data set [13] (RG6146 with CEA-TCB supernatant). The “Caspase 8 activity” value in data set [9] (HCT116 cells) is “induces Caspase3,7 and 8 activity in HCT-116 and MKN45 cells significantly”; in data set [9] (MKN45 cells) it was “induces Caspase3,7 and 8 activity in HCT-116 and MKN45 cells significantly”. For the same molecule, the “cell death (cleaved PARP)” value in [12], in data set [15] and in data set [16] was “able to induce cell death” each time. Moreover, the “cell killing in CEA negative cells” value in data set [14] and in data set [17] was “able to increase cell killing” each time. The “cell growth of CEA negative cells” value in [18] is recorded as “significantly decrease cell growth”. Moreover, the “cell death (PI positivity)” value in data set [19] was “increased cell death”.
On to “Z-IETD-FMK: Caspase 8 inhibitor Z-IETD-FMK (R&D Systems #FMK007) (not fully specified)”, for which the “block of downstream Caspase 3,7 activation” value in data set [5] (setting [25]) is “blocked Caspase 8 and downstream Caspase 3,7 activation completely”. Also, in data set [9] (setting [25]), the “block of Caspase 8 activation” value was “blocked Caspase 8 and downstream Caspase 3,7 activation completely”.
As to `CCNC(=O)c1cc2c(-c3cc(C(C)(C)O)ccc3Oc3c(C)cc(F)cc3C)cn(C)c(=O)c2[nH]1` [ABBV744], the viability entry in data set [11] is “significantly decrease viability”.
For `Nc1ccccc1NC(=O)c1ccc(CNC(=O)OCc2cccnc2)cc1` [Entinostat], in data set [20], the “viability in negative control coculture (toxicity)” value is on record as “decreased viability also in the negative control”.
On the same count and under the same terms, next, `O=C(CCCCCCC(=O)Nc1ccccc1)NO` [Vorinostat]: “decreased viability also in the negative control”.
In the case of `Cc1sc2c(c1C)C(c1ccc(Cl)cc1)=N[C@@H](CC(=O)OC(C)(C)C)c1nnc(C)n1-2` [JQ1], in [1], the “change in sensitivity by p-gp 1 block with Zosuquidar” value was “no change”. In addition, the viability entry in data set [7], in data set [10] and in [11] was “significantly decrease viability” in each case. This molecule displayed a decreased tumor growth in [21] of 50%.
On to `CCS(=O)(=O)Nc1ccc(Oc2ccc(F)cc2F)c(-c2cn(C)c(=O)c3[nH]ccc23)c1` [Mivebresib], for which the viability result in data set [11] is “significantly decrease viability”.
With `COc1cc2c(cc1-c1c(C)noc1C)ncc1[nH]c(=O)n([C@H](C)c3ccccn3)c12` [ΪBET151], the viability result in [7], in data set [10] and in data set [11] was “significantly decrease viability” each time.
As to `Cc1sc2c(c1C)C(c1ccc(Cl)cc1)=N[C@@H](CC(=O)Nc1ccc(O)cc1)c1nnc(C)n1-2` [OTX015], the viability result in data set [7], in data set [10] and in data set [11] was “significantly decrease viability” in each case.
`Cc1[nH]c2ccccc2c1CCNCc1ccc(/C=C/C(=O)NO)cc1` [Panobinostat]: the “viability in negative control coculture (toxicity)” value in data set [20] was “decreased viability also in the negative control”.

B1: CEA-TCB: T cell activating bispecific antibody targeting CEA on tumor cells and CD3e on T cells (antibody, chains of the INN, looked up, V domains shown)
VH: QVQLVQSGAEVKKPGASVKVSCKASGYTFTEFGMNWVRQAPGQGLEWMGWINTKTGEATYVEEFKGRVTFTTDTSTSTAYMELRSLRSDDTAVYYCARWDFAYYVEAMDYWGQGTTVTVSS
VL: DIQMTQSPSSLSASVGDRVTITCKASAAVGTYVAWYQQKPGKAPKLLIYSASYRKRGVPSRFSGSGSGTDFTLTISSLQPEDFATYYCHQYYTYPLFTFGQGTKLEIK
VH2: QVQLVQSGAEVKKPGASVKVSCKASGYTFTEFGMNWVRQAPGQGLEWMGWINTKTGEATYVEEFKGRVTFTTDTSTSTAYMELRSLRSDDTAVYYCARWDFAYYVEAMDYWGQGTTVTVSS
VL2: QAVVTQEPSLTVSPGGTVTLTCGSSTGAVTTSNYANWVQEKPGQAFRGLIGGTNKRAPGTPARFSGSLLGGKAALTLSGAQPEDEAEYYCALWYSNLWVFGGGTKLTVL
For the molecule B1, in [22], the “combination of cytokines released by CEA-TCB activated T cells with BET inhibition” value is “synergistically combine with BET inhibition”. For the same molecule, the “CTL killing of cells with low or no CEA” value in data set [23] was “not able to induce CTL killing”. In [24], the PD-L1/PD-1 pathway entry is “up-regulates”; the anti-tumor activity entry is “potent anti-tumor activity”; the “intratumoral T cell infiltration” value is on record as “increased intratumoral T cell infiltration”; the “release of pro-inflammatory cytokines such as IFNy, TNF and Granzyme B” value is reported as “increased release of pro-inflammatory cytokines”. The “combination of cytokines released by CEA-TCB activated T cells with BET inhibition” value in [13] (20nM CEA-TCB conditioned media + RG6146 30uM to 0.0005uM) was “synergistically combine with BET inhibition”. The decreased tumor growth in [21] is reported as 60%.
